Assays:
ICAM-1 [1] = experiment: Cell surface ICAM-1 expression on HAEC by ELISA; format: cell-based, human; conditions: for induction of cell surface ICAM expression: HAEC exposed 16 hr
Procedure: In a small scale synthesis reaction, sLO converted 250 uM linoleic acid (LA) into 13-HpODE within the first hour of room temperature incubation. During the subsequent 3 days incubation, 13-HpODE presumably oxidatively modified the enzyme and generating epitopes on the enzyme which can elicit biological s activity such as the expression of cell surface ICAM on HAEC as shown in ELISA assay depicted in FIG. 11. […] In the large scale synthesis reaction, only in the presence of the 13-HpODE generating system did the sLO become active as shown in FIG. 12. sLO negative control represented the sLO enzyme incubated with buffer alone for the extended period of time. We have confirmed the oxSLO synthesized by either method are functionally and immunologically identical. Furthermore, we have determined that formation of a biologically activity is protein specific. Reaction of rabbit serum albumin using the large or small scale oxykine reaction generates immunoreactive but not biologically active products.
(§1) It was investigated whether the oxidative modification of rabbit serum albumin RSA by linoleic hydroperoxide alters the structural or biological property of an element (peptide or nonpeptide) in this material, conferring upon it a biological function as a vascular endothelial cell inflammatory signal. Using oxidatively modified RSA (oxRSA) prepared as described in Example 1, cultured human aortic endothelial cells were exposed for 12 hours with a range of oxRSA concentrations from 1 to 100 nM (nanomolar), and assayed for the cell surface expression of the inducible adhesion molecules VCAM-1, ICAM-1 or the constituitively expressed adhesion molecule ICAM-2 by ELISA assay. […] Furthermore, limulus assay for LPS in the oxRSA preparation was below detection. Constituitively expressed ICAM-2 was unaffected.

E-selectin = conditions: human aortic endothelial cells; cited from earlier work
VCAM-1 [2] = conditions: cited from earlier work; for induction of cell-surface expression of VCAM-1: human aortic endothelial cells
ICAM-1 [3] = conditions: human aortic endothelial cells; cited from earlier work
VCAM-1 mRNA = experiment: Northern blot VCAM-1 mRNA accumulation in HAEC; format: cell-based, human
Procedure: (§2) The ELISA data is supported by the Northern Blot data as illustrated in FIG. 15. […] Within 2-6 hr of stimulation, the mRNA level of the indicated genes all reached a steady state.
(§3) It was next investigated whether the induction of VCAM-1 and ICAM-1 cell surface expression by ox-RSA is due at least in part to changes in mRNA accumulation. Northern filter analysis was performed from RNA isolated from HAEC exposed for 4 hours With either TNFa (100 U/ml) or oxRSA (25 nM). Similar to that observed at the protein level, VCAM-mRNA levels were induced by ox-RSA to levels approximately 30-40% observed for TNFa.

[4] = tested on: NF-kB like DNA binding activity; experiment: Gel mobility shift assay, NF-kB-like binding sites of VCAM-1 promoter; format: cell-based, human; conditions: HAEC, two hours; TNFa 100 U/ml or oxRSA 25 nM
Procedure: To determine whether oxRSA modulated nuclear regulatory events associated with redox sensitive VCAM-1 gene expression, cultured human aortic endothelial cells were exposed or not (CTL) for two hours to TNFa (100 U/ml) or 25 nM of the oxykine RSA-LOOH (oxRSA), nuclear extracts prepared and gel mobility shift assays performed using 32P-labeled kL0kR, the tandem NF-kB-like binding sites of the human VCAM-1 promoter. Appropriate cold competitor and supershift controls using anti-p50 and anti-p65 antisera (R&D Systems) were performed to establish the DNA sequence binding specificity of the NF-kB complex band. Both TNF and oxRSA inducted NF-kB like DNA binding activity.

ICAM-1 mRNA = experiment: Northern blot ICAM-1 mRNA accumulation in HAEC; format: cell-based, human
Procedure: as §2, §3

ICAM-2 = experiment: Cell surface ICAM-2 expression on HAEC by ELISA; format: cell-based, human; conditions: 12 hours
Procedure: as §1

anti-LOOH/RSA antibody = experiment: ELISA recognition of modified proteins/peptides by anti-LOOH/RSA antibody; format: binding, rabbit
Procedure: Using ELISA, it was investigated whether the LOOH/RSA antibody recognized the LOOH/modified protein and unmodified protein. Unmodified IgG-free RSA was used as control. incubation at 37° C., wells were washed with PBS three times. Goat anti-rabbit IgG conjugated with alkaline phosphatase was diluted to 1:38,000 and added. After 2 hrs incubation at 37 °C, wells were washed again and p-nitrophenolphosphate was added. Color development was determined by a plate reader (Anthos II).
Microtiter wells were coated with increasing concentrations of unmodified, or modified peptide. After blocking wells with non-fat milk powder, 100 μl of 1:250 dilution of anti-LOOH/RSA antibody was added to each well. After wash, anti-rabbit IgG conjugated with alkaline phosphatase was added to each well. After adding substrate p-nitrophenyl phosphate, the OD was measured at 405 nm using a microplate reader. Values represent averages of a triplicate set of optical density readings of wells from one of at least 2 separate trials. 20 Western blot analysis of the aldehyde- and LOOH-modified peptide confirmed that none of the aldehyde-modified synthetic proteins were recognized to any significant extent, whereas LOOH-modified peptide was recognized by the antibody.

VCAM-1 [5] = experiment: Cell surface VCAM-1 expression on HAEC by ELISA; format: cell-based, human
Text: as §2, §1

MCP-1 mRNA = experiment: Northern blot MCP-1 mRNA accumulation in HAEC; format: cell-based, human
Text: as §2

[6] = VCAM-1 and ICAM-1 induction, polymyxin B 10 ug/ml

Molecule: Cc1c(C)c2c(c(C)c1O)CCC(C)(C(=O)O)O2 (centres unmarked) [Trolox]
- effect of addition on ICAM-1 induction by the oxykine (ICAM-1 [1]): no effect

Molecule: CCCCC/C=C\C/C=C\CCCCCCCC(=O)O [LA, linoleic acid]
- induction of cell-surface expression of E-selectin (E-selectin): not
- induction of cell surface ICAM expression (ICAM-1 [1]): did not become active
- induction of cell-surface expression of VCAM-1 (VCAM-1 [2]): induce
- induction of cell-surface expression of ICAM-1 (ICAM-1 [3]): not

Molecule: S=C(S)N1CCCC1 [PDTC, pyrrolidine dithiocarbamate]
- effect on induction of VCAM-1 by PUFAs and their fatty acid hydroperoxides (VCAM-1 [2]): suppressed

Molecule: linoleyl 194 hydroperoxide
- induction of cell-surface expression of E-selectin (E-selectin): not
- induction of cell-surface expression of VCAM-1 (VCAM-1 [2]): induce
- induction of cell-surface expression of ICAM-1 (ICAM-1 [3]): not

Molecule: CCCCCCCC/C=C\CCCCCCCC(=O)O [oleic acid]
- induction of cell-surface expression of E-selectin (E-selectin): do not induce
- induction of cell-surface expression of VCAM-1 (VCAM-1 [2]): do not induce
- induction of cell-surface expression of ICAM-1 (ICAM-1 [3]): do not induce

Molecule: oxRSA: rabbit serum albumin oxidatively modified by linoleic hydroperoxide (13-HPODE), Example 1
- VCAM-mRNA level relative to that observed for TNFa (VCAM-1 mRNA; 4 hours, 25 nM, TNFa 100 U/ml): 30-40%
- NF-kB like DNA binding activity [4]: inducted
- ICAM-1 mRNA induction (ICAM-1 mRNA; 4 hours, 25 nM): induced
- induction of ICAM-1 as percent of maximal TNF-a induced signal (ICAM-1 [1]; HAEC, 12 hours, 1 to 100 nM): 80%
- EC50 (ICAM-1 [1]; HAEC, 12 hours, read-out: approximate EC50 for ICAM-1 induction): 10 to 15 nM
- effect on constitutively expressed ICAM-2 (ICAM-2): unaffected
- concentration corresponding to least amount recognized (anti-LOOH/RSA antibody): < 2 nM
- least amount recognized by the antibody (anti-LOOH/RSA antibody; antibody 1:250, above control protein): 10 ng
- induction of VCAM-1 as percent of maximal TNF-a induced signal (VCAM-1 [5]; HAEC, 12 hours, 1 to 100 nM): 40%
- EC50 (VCAM-1 [5]; HAEC, 12 hours, read-out: approximate EC50 for VCAM-1 induction): 10 to 15 nM

Molecule: CC(C)(Sc1cc(C(C)(C)C)c(O)c(C(C)(C)C)c1)Sc1cc(C(C)(C)C)c(O)c(C(C)(C)C)c1 [probucol]
- effect of addition on ICAM-1 induction by the oxykine (ICAM-1 [1]): no effect

Molecule: RSA: unmodified IgG-free rabbit serum albumin used as control
- recognition by the antibody in ELISA (anti-LOOH/RSA antibody): barely recognized

Molecule: CCCCCCCCCCCCCCCCCC(=O)O [stearic acid]
- induction of cell-surface expression of E-selectin (E-selectin): do not induce
- induction of cell-surface expression of VCAM-1 (VCAM-1 [2]): do not induce
- induction of cell-surface expression of ICAM-1 (ICAM-1 [3]): do not induce

Molecule: YVTKSYNETKIKFDKYKAKSHEDEL [Native peptide]
- recognition by the antibody in ELISA (anti-LOOH/RSA antibody): failed to recognize

Molecule: polymyxin B
- effect on LPS induction (VCAM-1 [5]; [6]): fully inhibited
- effect on oxRSA activation (VCAM-1 [5]; [6]): no effect

Molecule: O=C(O)CN(CCN(CC(=O)O)CC(=O)O)CC(=O)O [EDTA]
- effect of addition on ICAM-1 induction by the oxykine (ICAM-1 [1]): no effect

Molecule: CCCCC/C=C\C/C=C\C/C=C\C/C=C\CCCC(=O)O [arachidonic acid]
- induction of cell-surface expression of E-selectin (E-selectin): not
- induction of cell-surface expression of VCAM-1 (VCAM-1 [2]): induce
- induction of cell-surface expression of ICAM-1 (ICAM-1 [3]): not

B1: soybean lipoxygenase (protein, UniProt P08170 1-839, looked up)
Seed linoleate …: MFSAGHKIKGTVVLMPKNELEVNPDGSAVDNLNAFLGRSVSLQLISATKADAHGKGKVGKDTFLEGINTSLPTLGAGESAFNIHFEWDGSMGIPGAFYIKNYMQVEFFLKSLTLEAISNQGTIRFVCNSWVYNTKLYKSVRIFFANHTYVPSETPAPLVSYREEELKSLRGNGTGERKEYDRIYDYDVYNDLGNPDKSEKLARPVLGGSSTFPYPRRGRTGRGPTVTDPNTEKQGEVFYVPRDENLGHLKSKDALEIGTKSLSQIVQPAFESAFDLKSTPIEFHSFQDVHDLYEGGIKLPRDVISTIIPLPVIKELYRTDGQHILKFPQPHVVQVSQSAWMTDEEFAREMIAGVNPCVIRGLEEFPPKSNLDPAIYGDQSSKITADSLDLDGYTMDEALGSRRLFMLDYHDIFMPYVRQINQLNSAKTYATRTILFLREDGTLKPVAIELSLPHSAGDLSAAVSQVVLPAKEGVESTIWLLAKAYVIVNDSCYHQLMSHWLNTHAAMEPFVIATHRHLSVLHPIYKLLTPHYRNNMNINALARQSLINANGIIETTFLPSKYSVEMSSAVYKNWVFTDQALPADLIKRGVAIKDPSTPHGVRLLIEDYPYAADGLEIWAAIKTWVQEYVPLYYARDDDVKNDSELQHWWKEAVEKGHGDLKDKPWWPKLQTLEDLVEVCLIIIWIASALHAAVNFGQYPYGGLIMNRPTASRRLLPEKGTPEYEEMINNHEKAYLRTITSKLPTLISLSVIEILSTHASDEVYLGQRDNPHWTSDSKALQAFQKFGNKLKEIEEKLVRRNNDPSLQGNRLGPVQLPYTLLYPSSEEGLTFRGIPNSISI
notes: unmodified soybean lipoxygenase, negative control
- MCP-1 mRNA (MCP-1 mRNA; 0.008 ug/ml): 1.12 arbitrary units
- MCP-1 mRNA (MCP-1 mRNA; 0.08 ug/ml): 3.1 arbitrary units
- MCP-1 mRNA (MCP-1 mRNA; 0.8 ug/ml): 12.34 arbitrary units
- MCP-1 mRNA accumulation (MCP-1 mRNA; Northern blot): not
- VCAM-1 mRNA (VCAM-1 mRNA; 0.008 ug/ml): −0.14 arbitrary units
- VCAM-1 mRNA (VCAM-1 mRNA; 0.08 ug/ml): 0.12 arbitrary units
- VCAM-1 mRNA (VCAM-1 mRNA; 0.8 ug/ml): 3.36 arbitrary units
- VCAM mRNA accumulation (VCAM-1 mRNA; Northern blot, 4 hr): not
- ICAM-1 mRNA (ICAM-1 mRNA; 0.008 ug/ml): −0.51 arbitrary units
- ICAM-1 mRNA (ICAM-1 mRNA; 0.08 ug/ml): −0.09 arbitrary units
- ICAM-1 mRNA (ICAM-1 mRNA; 0.8 ug/ml): 3.14 arbitrary units
- induction of cell surface ICAM expression (ICAM-1 [1]): did not become active
- induction of cell surface ICAM expression (ICAM-1 [1]; listed as unmodified sLO): failed to activate

From patent US20020052000A1, “Diagnostics for and mediators of inflammatory disorders” (priority 1996, published 2002)
